PMC12522106 (Cancer Research Communications, 2025)
One block for each compound: values may come before it.

Tests used:
[1] = test system: sarcospheres derived from 143B, MG63.3-GFP, and LM7 cell lines; experiment: Sarcosphere resazurin metabolic activity, results stated across all three cell lines; format: cell-based, human; settings: for effect on sarcosphere metabolic activity at Cmax: HDIs in clinical trials, tested at their Cmax, with and without MAP; for effect in initial screen: 48 hours, all three cell lines
Method: (§1) Khanna DVM, PhD (NCI). […] Medium was sterile filtered before use.
(§2) Highly metastatic osteosarcoma cells cultured in monolayers at 50% to 80% confluence were lifted with Accutase (Innovative Cell Technologies, Inc., cat. #NC9839010), resuspended in media, and diluted to the desired concentration. […] Following cell seeding, plates were centrifuged (1,000 g for 10 minutes at 4°C) and then incubated at 37°C with 5% CO2. […] Then, 100 μL drug treatment or vehicle was added to each well. […] Resazurin reduction on day 2 by vehicle-treated sarcospheres was compared with resazurin reduction on day 0 to calculate sarcosphere growth without drug over 2 days in selected experiments.
(§3) Plates were incubated at 37°C in 5% CO2 for 2 or 6 hours.
(§4) Sarcospheres were matured for 24 hours and then treated for 48 hours with media containing 10 µmol/L of each drug and 0.1% DMSO. […] Growth inhibition represents a more clinically translatable measure for screening studies in which a value of 0% represents stable disease since the start of treatment, values of 0% to 100% represent progression in which 100% is the untreated control, and values less than 0% represent regression in which −100% represents blank wells without sarcospheres.

LM7 sarcospheres = experiment: Sarcosphere resazurin metabolic activity (initial and secondary screens); format: cell-based, human; settings: for activity in combination with MAP: Bliss curve fitting, LM7
Method: as §1, §2, §3, §4

[2] = test system: spheroids derived from 65 pediatric patients with various types of cancer; design: method as in PMID 36575299; settings: including seven osteosarcomas; cited from earlier work
[3] = test system: monolayers of either established osteosarcoma cell lines or PDX cell lines; design: method as in PMID 30395907, PMID 26601688, PMID 37457661, PMID 35411591; settings: cited from earlier work
[4] = cited from earlier work

- effect on sarcosphere metabolic activity at Cmax [1]: most effective
Compound: CC(C)[C@H](C(=O)Nc1ccc(C(=O)NO)cc1)c1ccccc1 [AR-42]

Compound: COc1cc2nccc(Oc3ccc(NC(=O)C4(C(=O)Nc5ccc(F)cc5)CC4)cc3)c2cc1OC [Cabozantinib, cabozantinib]
- rank in initial screen (LM7 sarcospheres; 10 μmol/L): ranked fifteenth

- effect on sarcosphere metabolic activity at Cmax [1]: weakly inhibited
Compound: CN(C)Cc1c(C(=O)NCCOc2ccc(C(=O)NO)cc2)oc2ccccc12 [abexinostat]

Compound: CC(C)C[C@H](NC(=O)[C@H](Cc1ccccc1)NC(=O)c1cnccn1)B(O)O [bortezomib]
- rank of 75 drugs [2]: nineteenth
- standing in four independent screens [3]: among the top hits

Compound: CC(C)C[C@H](NC(=O)[C@H](CCc1ccccc1)NC(=O)CN1CCOCC1)C(=O)N[C@@H](Cc1ccccc1)C(=O)N[C@@H](CC(C)C)C(=O)[C@@]1(C)CO1 [carfilzomib]
- rank of overall mean of the three Cmax/ED50 ratios among the 13 drugs ([1]; without MAP): highest overall mean
- standing in four independent screens [3]: among the top hits

Compound: N.N.[Cl][Pt][Cl] [cisplatin]
- effect in initial screen ([1]; 10 μmol/L): no detectable effect

Compound: COc1cccc2c1C(=O)c1c(O)c3c(c(O)c1C2=O)C[C@@](O)(C(=O)CO)C[C@@H]3O[C@H]1C[C@H](N)[C@H](O)[C@H](C)O1 [doxorubicin]
- effect in initial screen ([1]; 10 μmol/L): effective

Compound: CO[C@H]1C[C@@H]2CC[C@@H](C)[C@@](O)(O2)C(=O)C(=O)N2CCCC[C@H]2C(=O)O[C@H]([C@H](C)C[C@@H]2CC[C@@H](OCCO)[C@H](OC)C2)CC(=O)[C@H](C)/C=C(\C)[C@@H](O)[C@@H](OC)C(=O)[C@H](C)C[C@H](C)/C=C/C=C/C=C/1C [everolimus]
- effect in initial screen ([1]; 10 μmol/L): little or no effect

- effect on sarcosphere metabolic activity at Cmax [1]: weakly inhibited
Compound: CCN(CC)Cc1ccc2cc(COC(=O)Nc3ccc(C(=O)NO)cc3)ccc2c1 [givinostat]

- effect on sarcosphere metabolic activity at Cmax [1]: weakly inhibited
Compound: Nc1ccccc1NC(=O)c1ccc(CNc2nccc(-c3cccnc3)n2)cc1 [mocetinostat]

Compound: Cc1[nH]c2ccccc2c1CCNCc1ccc(/C=C/C(=O)NO)cc1 [panobinostat]
- rank of 75 drugs [2]: fifteenth
- standing in four independent screens [3]: among the top hits

Compound: Cc1ccc(C(=O)Nc2ccc(CN3CCN(C)CC3)c(C(F)(F)F)c2)cc1C#Cc1cnc2cccnn12 [ponatinib]
- activity in combination with MAP (LM7 sarcospheres): additive-to-synergistic activity

- effect on sarcosphere metabolic activity at Cmax [1]: weakly inhibited
Compound: CCCCc1nc2cc(/C=C/C(=O)NO)ccc2n1CCN(CC)CC [pracinostat]

- effect on sarcosphere metabolic activity at Cmax [1]: weakly inhibited
Compound: Cn1cc(CNCC2CCN(c3ncc(C(=O)NO)cn3)CC2)c2ccccc21 [quisinostat]

- effect on sarcosphere metabolic activity at Cmax [1]: most effective
Compound: CN(C)Cc1ccc(S(=O)(=O)n2ccc(/C=C/C(=O)NO)c2)cc1 [resminostat]

Compound: CC[C@@]1(O)C(=O)OCc2c1cc1n(c2=O)Cc2cc3c(CN(C)C)c(O)ccc3nc2-1 [topotecan]
- rank in initial screen ([1]; 10 μmol/L): ranked eighth
- Cmax [4]: 6.5 nM

Compound: O=C(CCCCCCC(=O)Nc1ccccc1)NO [vorinostat]
- activity in combination with MAP (LM7 sarcospheres): additive-to-synergistic activity
